Publication PMC6789487, “Iminosugars: Effects of Stereochemistry, Ring Size, and N-Substituents on Glucosidase Activities” (Pharmaceuticals, 2019)
Several values for one entry are separate records, joined by “and”; a condition that tells them apart may be missing. Identical values can stand only once. Like-named read-outs stand apart in the source and are kept apart here.

What was measured:
[1] = target: almond β-glucosidase (EC 3.2.1.21); assay: Almond β-glucosidase inhibition, p-nitrophenyl β-D-glucopyranoside substrate, 96-well plate; assay type: biochemical; details: β-Glucosidase from almonds; NI: no inhibition
Procedure: To broaden the scope of the analysis, β-glucosidase (almond) activity of the same set of compounds was conducted using the corresponding p-nitrophenyl β-D-glucopyranoside.
(§1) Biological assays: Yeast α-glucosidase (EC 3.2.1.20) and almond β-glucosidase (EC 3.2.1.21) activity was assessed using a 96-well plate assay. Assays contained 20 mM NaOAc at pH 6.8 (α-glucosidase) and pH 6.2 (β-glucosidase), 10 mM PIPES (piperazine-N,N′-bis(2-ethanesulfonic acid), 0.1 mM EDTA, α-glucosidase (5 μg/mL), β-glucosidase (6 μg/mL), and inhibitor (0.1–2 mM). Enzyme and inhibitor were equilibrated at 37 °C for 30 min. The reaction was initiated by the addition of p-nitrophenyl α-D-glucopyranoside (200 μM) or p-nitrophenyl β-D-glucopyranoside (200 μM), and then it was quenched with 100 μL of sodium carbonate 3.0 M after 25 min incubation at 37 °C. Assays were repeated in duplicate and data averaged.

[2] = target: T1, α-glucosidase (from Saccharomyces cerevisiae) (Saccharomyces cerevisiae, UniProt P53341); assay: Yeast α-glucosidase inhibition, p-nitrophenyl α-D-glucopyranoside substrate, 96-well plate; assay type: biochemical
T1 sequence (P53341 whole entry): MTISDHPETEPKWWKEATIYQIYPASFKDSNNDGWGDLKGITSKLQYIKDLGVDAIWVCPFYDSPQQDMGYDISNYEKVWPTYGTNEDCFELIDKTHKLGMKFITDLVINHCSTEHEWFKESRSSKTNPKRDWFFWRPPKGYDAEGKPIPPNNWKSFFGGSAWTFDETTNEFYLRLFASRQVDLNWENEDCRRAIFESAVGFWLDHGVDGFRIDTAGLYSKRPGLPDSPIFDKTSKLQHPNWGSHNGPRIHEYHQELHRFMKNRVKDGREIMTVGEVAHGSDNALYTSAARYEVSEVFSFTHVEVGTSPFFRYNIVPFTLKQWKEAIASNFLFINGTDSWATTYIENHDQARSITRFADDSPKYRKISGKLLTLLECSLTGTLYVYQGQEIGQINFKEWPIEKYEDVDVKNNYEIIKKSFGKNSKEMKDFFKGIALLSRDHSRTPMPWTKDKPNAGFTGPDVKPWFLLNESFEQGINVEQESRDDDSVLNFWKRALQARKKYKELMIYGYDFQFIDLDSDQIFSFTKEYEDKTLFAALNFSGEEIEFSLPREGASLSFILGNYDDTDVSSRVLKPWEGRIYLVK
Procedure: as §1

[3] = target: T1, α-glucosidase (from Saccharomyces cerevisiae); assay: as above; assay type: biochemical; details: tested concentration 15–2000 µM
yeast α-glucosidase = details: at 1 mM; cited from earlier work
[4] = system: Bacillus stearothermophilus α-glucosidase; set-up: method as in PMID 9113331; details: cited from earlier work; for % α-glucosidase inhibition: tested at 1 mM in Bacillus stearothermophilus
β-glucosidase = details: cited from earlier work; for % β-glucosidase inhibition: at 1 mM
[5] = NI: no inhibition, read-out: Inhibition (µM) α-Glucosidase (IC50)
[6] = read-out: Inhibition (µM) α-Glucosidase (IC50), NI: no inhibition

IC50 [1]	IC50 [2, 5]	Compound	other results
> 2000 µM	> 2000 µM	OC[C@H]1[C@@H](O)[C@H](O)[C@H](O)CN1CCc1ccccc1 [29a, N-Phenethyl-1,5-dideoxy-1,5-imino-L-gulitol]	–
4 ± 1.5 µM	–	OCCN1C[C@H](O)[C@@H](O)[C@H](O)[C@H]1CO [41a, N-Hydroxyethyl-1,5-dideoxy-1,5-imino-D-glucitol, reference compound]	IC50 ([2]; Inhibition (µM) α-Glucosidase (IC50), NI: no inhibition): 41 µM and 41.3 µM
4 ± 1.4 µM	138 µM and 139 µM	OCCN1C[C@H](O)[C@@H](O)[C@H](O)[C@@H](O)C1 [41b, N-Hydroxyethyl-1,6-dideoxy-1,6-imino-L-iditol]	–

Continued, compound first:

Compound	IC50 [1]	IC50 [2, 5]	other results
C#CCN1C[C@@H](O)[C@@H](O)[C@H](O)[C@@H]1CO [26a, N-Propynyl-1,5-dideoxy-1,5-imino-L-gulitol]	1716 ± 12.8 µM	> 2000 µM	–
C#CCN1C[C@@H](O)[C@@H](O)[C@H](O)[C@H](O)C1 [26b, N-Propynyl-1,6-dideoxy-1,6-imino-D-mannitol]	> 2000 µM	> 2000 µM	–
CCCCN1C[C@@H](O)[C@@H](O)[C@H](O)[C@@H]1CO [27a, N-Butyl-1,5-dideoxy-1,5-imino-L-gulitol]	–	–	IC50 [2, 6]: > 2000 µM
CCCCN1C[C@@H](O)[C@@H](O)[C@H](O)[C@H](O)C1 [27b, N-Butyl-1,6-dideoxy-1,6-imino-D-mannitol]	184 µM and 185 µM	–	–
OCCN1C[C@@H](O)[C@@H](O)[C@H](O)[C@@H]1CO [28a, N-Hydroxyethyl-1,5-dideoxy-1,5-imino-L-gulitol]	> 2000 µM	–	IC50 [2, 6]: > 2000 µM
OCCN1C[C@@H](O)[C@@H](O)[C@H](O)[C@H](O)C1 [28b, N-Hydroxyethyl-1,6-imino-D-mannitol]	> 2000 µM	> 2000 µM	–
O[C@H]1[C@H](O)[C@H](O)CN(CCc2ccccc2)C[C@H]1O [29b, N-Phenethyl-1,6-dideoxy-1,6-imino-D-mannitol]	> 2000 µM	> 2000 µM	–
C#CCN1C[C@H](O)[C@@H](O)[C@H](O)[C@H]1CO [39a, N-Propynyl-1,5-dideoxy-1,5-imino-D-glucitol]	636 ± 8.5 µM	> 2000 µM	yeast α-glucosidase inhibition (in words) [3]: weak or no α-glucosidase inhibition
C#CCN1C[C@H](O)[C@@H](O)[C@H](O)[C@@H](O)C1 [39b, N-Propynyl-1,6-dideoxy-1,6-imino-L-iditol]	3440 ± 70.6 µM	> 2000 µM	yeast α-glucosidase inhibition (in words) [3]: weak or no α-glucosidase inhibition
CCCCN1C[C@H](O)[C@@H](O)[C@H](O)[C@H]1CO [40a, N-Butyl-1,5-dideoxy-1,5-imino-D-glucitol, reference compound]	–	–	yeast α-glucosidase inhibition (in words) [3]: weak or no α-glucosidase inhibition; IC50 [2, 6]: > 2000 µM
CCCCN1C[C@H](O)[C@@H](O)[C@H](O)[C@@H](O)C1 [40b, N-Butyl-1,6-dideoxy-1,6-imino-L-iditol]	80 ± 4.9 µM	> 2000 µM	% inhibition, α-glucosidase (yeast α-glucosidase): 14%; yeast α-glucosidase inhibition (in words) [3]: weak or no α-glucosidase inhibition
O[C@H]1[C@H](O)[C@H](O)CNC[C@H]1O [D-manno-azepane, 1,6-dideoxy-1,6-imino-D-mannitol]	–	–	% α-glucosidase inhibition [4]: 55%; % β-glucosidase inhibition (β-glucosidase): 1%
OC[C@H]1NC[C@H](O)[C@@H](O)[C@@H]1O [DNJ, 1-deoxynojirimycin, reference compound]	33 µM and 33.1 µM	–	Ki ([4]; Bacillus stearothermophilus α-glucosidase): 440 nM; Ki (β-glucosidase): […]
OC[C@@H]1NC[C@@H](O)[C@@H](O)[C@@H]1O [nonsubstituted L-gulo-piperidine, 1-deoxy-L-gulo-nojirimycin]	–	–	% α-glucosidase inhibition [4]: 30%; % β-glucosidase inhibition (β-glucosidase): […]
